# Reference: the supplement of paper PMC10307832
# Experiments:
# Test in all cases: relative viability (nuclei count vs DMSO), 5 days (fraction); higher = more cells survive
# [1] = compound: CC1=C(N=C(N=C1N)[C@H](CC(=O)N)NC[C@@H](C(=O)N)N)C(=O)N[C@@H]([C@H](C2=CN=CN2)OC3C(C(C(C(O3)CO)O)O)OC4C(C(C(C(O4)CO)O)OC(=O)N)O)C(=O)N[C@H](C)[C@H]([C@H](C)C(=O)N[C@@H]([C@@H](C)O)C(=O)NCCC5=NC(=CS5)C6=NC(=CS6)C(=O)NCCC[S+](C)C)O [Bleomycin] + Cc1nc(NC(=O)N2CCC[C@H]2C(N)=O)sc1-c1ccnc(C(C)(C)C(F)(F)F)c1 [Alpelisib] (partner 2 µM); conditions: main component drawn
# How it was run: (§1)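 Lung cancer cell lines were pin-tool dosed in 1536-well plates on the day after seeding, with either a lone drug or a fixed anchor-drug dose plus five library-drug doses (not always all listed) in √10 steps. Nuclei were counted on 4× images after 5 days. Relative viability is the ratio of treated-well to vehicle-well nuclei counts, with each value a median of duplicate plates.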
# [2] = compound: CC1=C(N=C(N=C1N)[C@H](CC(=O)N)NC[C@@H](C(=O)N)N)C(=O)N[C@@H]([C@H](C2=CN=CN2)OC3C(C(C(C(O3)CO)O)O)OC4C(C(C(C(O4)CO)O)OC(=O)N)O)C(=O)N[C@H](C)[C@H]([C@H](C)C(=O)N[C@@H]([C@@H](C)O)C(=O)NCCC5=NC(=CS5)C6=NC(=CS6)C(=O)NCCC[S+](C)C)O [Bleomycin] + Cc1nc(Nc2ncc(C(=O)Nc3c(C)cccc3Cl)s2)cc(N2CCN(CCO)CC2)n1 [Dasatinib] (partner 0.075 µM); conditions: main component drawn
# How it was run: as §1
# [3] = compound: COc1cc([C@@H]2c3cc4c(cc3[C@@H](O[C@@H]3O[C@@H]5CO[C@@H](C)O[C@H]5[C@H](O)[C@H]3O)[C@H]3COC(=O)[C@H]23)OCO4)cc(OC)c1O [Etoposide] + C[C@@H](Oc1cc(-c2cnn(C3CCNCC3)c2)cnc1N)c1c(Cl)ccc(F)c1Cl [Crizotinib] (partner 1 µM)
# How it was run: as §1
# [4] = compound: COc1cc([C@@H]2c3cc4c(cc3[C@@H](O[C@@H]3O[C@@H]5CO[C@@H](C)O[C@H]5[C@H](O)[C@H]3O)[C@H]3COC(=O)[C@H]23)OCO4)cc(OC)c1O [Etoposide] + COc1cc2c(Oc3ccc(NC(=O)C4(C(=O)Nc5ccc(F)cc5)CC4)cc3F)ccnc2cc1OCCCN1CCOCC1 [Foretinib] (partner 0.25 µM)
# How it was run: as §1
Cell Line,relative viability ([1]; first compound 0.01 µM),relative viability ([1]; first compound 0.03162 µM),relative viability ([1]; first compound 0.1 µM),relative viability ([1]; first compound 0.3162 µM),relative viability ([1]; first compound 1 µM),relative viability ([2]; first compound 0.01 µM),relative viability ([2]; first compound 0.03162 µM),relative viability ([2]; first compound 0.1 µM),relative viability ([2]; first compound 0.3162 µM),relative viability ([2]; first compound 1 µM),relative viability ([3]; first compound 0.01 µM),relative viability ([3]; first compound 0.03162 µM),relative viability ([3]; first compound 0.1 µM),relative viability ([3]; first compound 0.3162 µM),relative viability ([3]; first compound 1 µM),relative viability ([4]; first compound 0.01 µM),relative viability ([4]; first compound 0.03162 µM),relative viability ([4]; first compound 0.1 µM),relative viability ([4]; first compound 0.3162 µM),relative viability ([4]; first compound 1 µM)
201T,0.956,0.949,0.96,0.862,0.753,0.527,0.529,0.546,0.444,0.463,1.02,1.03,0.975,0.898,0.678,0.981,0.931,1.1,0.778,0.425
A549,0.593,0.44,0.314,0.0966,0.0714,,,,,,0.734,0.624,0.406,0.152,0.083,0.773,1.01,0.753,0.236,0.068
A-427,0.983,1.05,1.05,0.48,0.203,0.53,0.56,0.496,0.137,0.144,0.875,0.837,0.717,0.263,0.153,0.947,1.08,0.853,0.424,0.284
ABC-1,0.883,1.03,0.615,0.425,0.298,0.516,0.53,0.61,0.31,0.285,0.791,0.965,0.892,0.395,0.179,1.06,0.951,0.65,0.5,0.271
BEN,1.01,0.921,0.937,0.762,0.738,0.327,0.342,0.341,0.273,0.249,0.701,0.827,,0.828,0.693,0.564,0.884,,0.657,0.725
CAL-12T,0.666,0.883,0.433,0.235,0.244,0.246,0.259,0.164,0.0878,0.12,0.547,0.573,0.82,0.298,0.223,1.19,1.16,1.13,0.765,0.401
COR-L23,0.516,0.495,0.262,0.0744,0.0882,0.394,0.276,0.215,0.0981,0.0987,0.548,0.68,0.802,0.45,0.198,0.954,1.14,1,0.744,0.33
COR-L 105,0.95,0.949,0.794,0.413,0.317,0.325,0.35,0.307,0.238,0.215,0.675,0.51,0.709,0.644,0.543,0.926,1.3,1.02,1.02,0.645
Calu-6,0.63,0.603,0.333,0.181,0.177,,,,,,0.751,0.862,0.964,0.575,0.362,0.825,0.922,0.921,0.41,0.234
ChaGo-K-1,,,,,,0.529,0.552,0.533,0.246,0.264,1.08,0.888,0.576,0.306,0.304,0.781,0.978,0.8,0.281,0.21
EBC-1,0.777,0.718,0.696,0.501,0.404,,,,,,0.189,0.202,,0.197,0.194,0.119,0.107,0.12,0.102,0.107
EKVX,0.894,0.738,0.683,0.345,0.37,0.56,0.435,0.502,0.276,0.26,0.868,0.916,0.891,0.816,0.414,1.09,0.711,0.448,0.237,0.303
EMC-BAC-2,0.647,0.643,0.653,0.355,0.232,0.293,0.277,0.259,0.144,0.115,0.661,0.527,0.382,0.2,0.161,0.918,1.05,0.612,0.302,0.238
EPLC-272H,0.889,0.847,0.797,0.308,0.176,0.35,0.36,0.272,0.149,0.0954,1.07,1.03,0.628,0.703,0.489,0.626,0.722,0.552,0.61,0.255
H3255,0.532,0.69,0.508,0.335,0.305,0.356,0.448,0.426,0.332,0.327,0.802,0.841,0.667,0.537,0.231,0.974,0.897,0.603,0.674,0.457
HARA,0.682,0.784,0.818,0.415,0.373,0.297,0.322,0.251,0.186,0.104,0.801,1.11,1.11,0.611,0.192,0.703,0.9,0.291,0.534,0.187
